From patent publication US12465588B2, “Indole carboxamide derivative and pharmaceutical composition containing same” (KUKJE PHARMA CO., LTD., priority 2019, dated 2025)
Marks after values point to notes of the source that are not given here.

Tests used:
[1] = tested on: guinea pig model of osteoarthritis induced by MIA (monosodium iodoacetate); assay: Hind limb incapacitance test in guinea pig model of osteoarthritis induced by MIA; format: in vivo; conditions: for weight-bearing ratios, course in words: over 4 weeks of oral administration after MIA
Procedure: An experiment was conducted as follows in order to evaluate the efficacy of the compound according to the present invention for osteoarthritis-induced guinea pigs.
(§1) Specifically, male guinea pigs weighing about 500 g±20% from Coretech Co., Ltd. (Gyeonggi-do, Korea) were acclimated in a laboratory for 8 days, and provided chow and water ad libitum. Temperature (23±3° C.), humidity (55±15%) and light/dark cycle (12 hours, 08:00˜20:00) were controlled automatically.
(§2) Each group consisted of 10 guinea pigs. Guinea pigs were anesthetized with Zoletil 50 (VIRBAC, France, 5 mg/kg) and xylazine (Rompun®, Bayer AG, Germany, 2.5 mg/kg) and depilated at the area around the right knee with Clipper. Using a C-arm (ARCADIS Varic, SIEMENS Co.), it was confirmed that a syringe equipped with a 26 gauge needle was located in the joint cavity. 50 μL of MIA at a concentration of 60 mg/mL was administered into the joint cavity. One week after MIA administration, Compound 9 of the present invention was added to excipients (DMSO (10% by weight), Tween 80 (30% by weight), HMPC (same amount as the drug)), dissolved in water so that the total amount was 100% by weight, and orally administered to the prepared experimental animals at 10 mg/kg and 25 mg/kg, respectively. In the positive control group, GRC27864 was orally administered at 12.5 mg/kg using the same excipient, and only the excipient was orally administered to the control group. The drug was administered for 4 weeks.
(§3) The hind limb incapacitance test was performed for the behavioral evaluation weekly for 4 weeks and the inflammatory factor evaluation was performed by measuring PGE2, IL-1β, and TNF-α in blood after 4 weeks.
The hind limb weight-bearing ratios were obtained by setting up the animals at an inclination of 60 degrees in a plastic room using an incapacitance meter tester, measuring the intensity applied to each hind limb over 10 seconds, and calculating an average. Weight-bearing ratios are 50% for normal cases and up to early 30% for the cases in which a disease is induced.

[2] = tested on: A549 human lung cancer cells; assay: Measurement of PGE2 in IL-1β-treated A549 human lung cancer cells; format: cell-based; conditions: PGE2 production, A549 cell, IL-1β 1 ng/mL, 48 hours
Procedure: Samples at various concentrations were added at 24 hours after A549 human lung cancer cells were seeded. After 1 hour, IL-1β of 1 ng/mL was added. The cells were cultured for 48 hours and then the culture supernatant was collected. PGE2 of the collected supernatant was measured according to the manufacturer's instructions using a PGE2 EIA kit.

[3] = tested on: PGE2, IL-1β, and TNF-α in blood; assay: Inflammatory factor evaluation (ELISA) in blood of MIA osteoarthritis guinea pigs; format: in vivo, guinea pig; conditions: for IL-1β (ELISA analysis) / PGE2 (ELISA analysis) / TNF-α (ELISA analysis): blood, after 4 weeks
Procedure: as §1, §2, §3
The concentrations of PGE2, IL-1β, and TNF-α in blood were measured using commercially available ELISA kit after 4 weeks. The results are shown in Table 4 below and FIGS. 2 to 4. ***, ** and * represent statistical significance compared to the control group, and are P<0.001, P<0.01, and P<0.05 compared to the control group.

[4] = tested on: acetic acid-induced abdominal contraction mouse model; assay: Anti-pain efficacy test, acetic acid-induced abdominal contraction mouse model; format: in vivo; conditions: oral, 1 hour before 0.7% acetic acid i.p.; writhing counted for 10 minutes (FIG. 5)
Procedure: In order to evaluate the anti-pain efficacy of the compound according to the present invention in abdominal contraction mice, an experiment was conducted as follows.
Specifically, male ICR mice weighing about 20 to 25 g from Orient Bio Co., Ltd. (Gyeonggi-do, Korea) were acclimated in a laboratory for 7 days and provided chow and water ad libitum. Temperature (20±2° C.), humidity (40±60%) and light/dark cycle (12 hours) were controlled automatically.
Based on 10 mice per group, the control group was orally administered with an excipient (200 μL), and the positive control group was orally administered with celecoxib at 25 mg/kg. Compound 9 of the present invention was dissolved in an excipient (10% NMP (N-methyl-2-pyrrolidone), 10% ethanol, 80% polyethylene glycol 400) and administered orally at 10 and 50 mg/kg to each mouse. One hour after drug administration, 0.7% acetic acid was intraperitoneally injected at […] to induce pain. The number of writhing was measured for 10 minutes from 10 minutes after the acetic acid administration.
In this experiment, the less the number of writhing for 10 minutes, the stronger the anti-pain efficacy of the drug was evaluated. The statistical significance compared to the control group was represented as **P<0.01, *P<0.05 compared to the control group.

CC(C)C(=O)NCc1ccc(Cl)c(-c2nc3cc(-c4ccc(C(F)(F)F)cc4)ncc3c(=O)[nH]2)c1 [GRC27864, reference compound]
Weight-bearing ratio ([1]; GRC27864 12.5 mg/kg oral, day 0): 40.84 ± 2.68%
Weight-bearing ratio ([1]; GRC27864 12.5 mg/kg oral, day 7): 43.66 ± 4.51%
Weight-bearing ratio ([1]; GRC27864 12.5 mg/kg oral, day 14): 39.85 ± 3.29%
Weight-bearing ratio ([1]; GRC27864 12.5 mg/kg oral, day 21): 37.35 ± 4.43%
Weight-bearing ratio ([1]; GRC27864 12.5 mg/kg oral, day 28): 40.92 ± 3.85%
weight-bearing ratios, course in words [1]: did not worsen after MIA administration but were maintained
IC50 [2]: 3.21 nM
IL-1β (ELISA analysis) ([3]; 12.5 mpk oral): 37.408 ± 9.109
PGE2 (ELISA analysis) ([3]; 12.5 mpk oral): 7756.9 ± 1860.5**
TNF-α (ELISA analysis) ([3]; 12.5 mpk oral): 97.110 ± 20.595*

CC(C)C(=O)NCc1ccc(Cl)c(C(=O)Nc2ccc3c(c2)cc(C(=O)N[C@@H](C)c2ccc4ccccc4c2)n3C)c1 [Compound 31, (S)-5-(2-chloro-5-(isobutyramidomethyl)benzamido)-1-methyl-N-(1-(naphthalen-2-yl)ethyl)-1H-indole-2-carboxamide]
IC50 [2]: 9.22 nM

CC(C)C(=O)NCc1ccc(Cl)c(C(=O)Nc2ccc3c(c2)cc(C(=O)NCc2ccc(OC(F)(F)F)cc2)n3CC(F)(F)F)c1 [Compound 72, 5-(2-chloro-5-(isobutyramidomethyl)benzamido)-1-(2,2,2-trifluoroethyl)-N-(4-(trifluoromethoxy)Benzyl)-1H-indole-2-carboxamide]
IC50 [2]: 9.38 nM

CC(C)C(=O)NCc1ccc(Cl)c(C(=O)Nc2ccc3c(c2)cc(C(=O)Nc2cc(F)cc(C(F)(F)F)c2)n3C)c1 [Compound 17, 5-(2-chloro-5-(isobutyramidomethyl)benzamido)-N-(3-fluoro-5-(trifluoromethyl)phenyl)-1-methyl-1H-indole-2-carboxamide]
IC50 [2]: 88.1 nM

CC(C)C(=O)NCc1ccc(Cl)c(C(=O)Nc2ccc3c(c2)cc(C(=O)NC(C)c2ccc(C(F)(F)F)cc2)n3C)c1 (stereo not shown) [Compound 47, 5-(2-chloro-5-(isobutyramidomethyl)benzamido)-1-methyl-N-(1-(4-(trifluoromethyl)phenyl)ethyl)-1H-indole-2-carboxamide]
IC50 [2]: 5.82 nM

CC(C)C(=O)NCc1ccc(Cl)c(C(=O)Nc2ccc3c(c2)cc(C(=O)N[C@@H](C)c2ccc([N+](=O)[O-])cc2)n3CC(F)(F)F)c1 [Compound 66, (S)-5-(2-chloro-5-(isobutyramidomethyl)benzamido)-N-(1-(4-nitrophenyl)ethyl)-1-(2,2,2-trifluoroethyl)-1H-indole-2-carboxamide]
IC50 [2]: 43.3 nM

CC(C)C(=O)NCc1ccc(Cl)c(CNc2ccc3c(c2)cc(C(=O)Nc2ccc(OC(F)(F)F)cc2)n3C)c1 [Compound 73, 5-((2-chloro-5-(isobutyramidomethyl)benzyl)amino)-1-methyl-N-(4-(trifluoromethoxy)phenyl)-1H-indole-2-carboxamide]
IC50 [2]: 72.3 nM

CC(C)C(=O)NCc1ccc(Cl)c(C(=O)Nc2ccc3c(c2)cc(C(=O)NCc2ccc(C(C)(C)C)cc2)n3C)c1 [Compound 33, N-(4-(tert-butyl)benzyl)-5-(2-chloro-5-(isobutyramidomethyl)benzamido)-1-methyl-1H-indole-2-carboxamide]
IC50 [2]: 9.59 nM

Cc1ccc(-c2cc(C(F)(F)F)nn2-c2ccc(S(N)(=O)=O)cc2)cc1 [celecoxib, reference compound]
number of writhing compared to the control group [4]: significantly lower number of writhing compared to the control group

CC(C)C(=O)NCc1ccc(Cl)c(C(=O)Nc2ccc3c(c2)cc(C(=O)Nc2cc(-c4ccc(C(F)(F)F)cc4)n[nH]2)n3C)c1 [Compound 19, 5-(2-chloro-5-(isobutyramidomethyl)benzamido)-1-methyl-N-(3-(4-(trifluoromethyl)phenyl)-1H-pyrazole-5-yl)-1H-indole-2-carboxamide]
IC50 [2]: > 100 nM

CC(C)C(=O)NCc1ccc(Cl)c(C(=O)Nc2ccc3c(c2)cc(C(=O)NCc2cc(F)cc(C(F)(F)F)c2)n3CC(F)(F)F)c1 [Compound 69, 5-(2-chloro-5-(isobutyramidomethyl)benzamido)-N-(3-fluoro-5-(trifluoromethyl)benzyl)-1-(2,2,2-trifluoroethyl)-1H-indole-2-carboxamide]
IC50 [2]: 47 nM

CC(C)C(=O)NCc1ccc(Cl)c(C(=O)Nc2ccc3c(c2)cc(C(=O)Nc2ccc(OC(F)(F)F)cc2)n3C)c1 [Compound 9, 5-(2-chloro-5-(isobutyramidomethyl)benzamido)-1-methyl-N-(4-(trifluoromethoxy)phenyl)-1H-indole-2-carboxamide]
number of writhing compared to the control group [4]: significantly lower number of writhing compared to the control group
Weight-bearing ratio ([1]; 10 mpk oral, day 0): 42.05 ± 2.99%
Weight-bearing ratio ([1]; 10 mpk oral, day 7): 39.64 ± 5.30%
Weight-bearing ratio ([1]; 10 mpk oral, day 14): 39.53 ± 6.41%
Weight-bearing ratio ([1]; 10 mpk oral, day 21): 40.16 ± 2.92%
Weight-bearing ratio ([1]; 10 mpk oral, day 28): 38.42 ± 1.52%
Weight-bearing ratio ([1]; 25 mpk oral, day 0): 39.15 ± 4.53%
Weight-bearing ratio ([1]; 25 mpk oral, day 7): 42.39 ± 3.69%
Weight-bearing ratio ([1]; 25 mpk oral, day 14): 40.65 ± 3.61%
Weight-bearing ratio ([1]; 25 mpk oral, day 21): 39.19 ± 3.15%
Weight-bearing ratio ([1]; 25 mpk oral, day 28): 39.28 ± 4.14%
weight-bearing ratios, course in words [1]: did not worsen after MIA administration but were maintained
IC50 [2]: 7.16 nM
inhibitory ability on inflammatory factors, in words ([3]; 25 mpk, compared with GRC27864 group): inhibited the inflammatory factor more than the group administered with the drug GRC27864
IL-1β (ELISA analysis) ([3]; 10 mpk oral): 41.547 ± 10.683
PGE2 (ELISA analysis) ([3]; 10 mpk oral): 9331.6 ± 2215.6
TNF-α (ELISA analysis) ([3]; 10 mpk oral): 119.715 ± 22.898
IL-1β (ELISA analysis) ([3]; 25 mpk oral): 34.345 ± 11.786
PGE2 (ELISA analysis) ([3]; 25 mpk oral): 5812.4 ± 1758.8***
TNF-α (ELISA analysis) ([3]; 25 mpk oral): 94.833 ± 22.453**
